Assay results reported in patent US20240101570A1 (AMGEN INC., priority 2020, published 2024).

Legend:
[1] = test system: HCT116 MTAP null cells; assay: HCT116 MTAP null cell proliferation / viability (CellTiter-Glo, 6 days); assay type: cell-based; details: HCT116-MTAP null, 144 h, HCT116 MTAP null cells, 6 days, CellTiter-Glo; read-out: HCT-116 MTAP null IC50
How it was run: (§1)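 Viability read by CellTiter-Glo after 6-day compound exposure of MTAP-null and wild-type HCT116 cells grown in RPMI 1640 with 10% FBS. Dosing used 1:3 steps from 1 or 10 μM (8-9 points) or 1:2 steps from 10 or 50 μM (22 points); IC50 taken where fitted curve crosses 50% of control.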

[2] = test system: HCT116 WT cells; assay: HCT116 WT cell proliferation / viability (CellTiter-Glo, 6 days); assay type: cell-based; details: Homo sapiens, HCT-116, 144 h, HCT116 WT cells, 6 days, CellTiter-Glo; read-out: HCT-116 WT IC50
How it was run: as §1

Compound	IC50 [1] [nM]	IC50 [2] [nM]
CN(Cc1ccc(C(F)(F)F)cn1)C(=O)c1cc2c3c(c(N)nc2cc1C(F)(F)F)COC3 [Example 572, 4-amino-N-methyl-7-(trifluoromethyl)-N-((5-(trifluoromethyl)-2-pyridinyl)methyl)-1,3-dihydrofuro[3,4-c]quinoline-8-carboxamide]	939	> 50000
CN(Cc1ccc(S(F)(F)(F)(F)F)cc1)C(=O)c1ccc2nc(N)c3cnn(C)c3c2c1 [Example 573, 4-amino-N,1-dimethyl-N-(4-(pentafluoro-lambda~6~- sulfanyl)benzyl)-1H-pyrazolo[4,3-c]quinoline-8-carboxamide]	85	3730
CN(Cc1ccc(S(F)(F)(F)(F)F)cc1)C(=O)c1cc2c(cn1)nc(N)c1cnn(C)c12 [Example 574, 4-amino-N,1-dimethyl-N-(4-(pentafluoro-lambda~6~- sulfanyl)benzyl)-1H-pyrazolo[4,3-c][1,7]naphthyridine-8-carboxamide]	25	878
CN(Cc1ccc(S(F)(F)(F)(F)F)cc1O)C(=O)c1cc2c3c(c(N)nc2cc1F)COC3 [Example 576, 4-amino-7-fluoro-N-(2-hydroxy-4-(pentafluoro-lambda~6~- sulfanyl)benzyl)-N-methyl-1,3-dihydrofuro[3,4-c]quinoline-8-carboxamide]	107	2080
C[C@H](c1ncccn1)N(Cc1ccc(C#N)cn1)C(=O)c1cc2c3c(c(N)nc2cn1)COC3 [Example 606, (R)-4-amino-N-((5-cyanopyridin-2-yl)methyl)-N-(1-(pyrimidin-2-yl)ethyl)-1,3-dihydrofuro[3,4-c][1,7]naphthyridine-8-carboxamide]	263	3700
CC(C)CN(Cc1ccc(C(F)(F)F)cn1)C(=O)c1cnc2nc(N)c3c(c2c1)CCC3 [Example 607, 6-amino-N-isobutyl-N-((5-(trifluoromethyl)pyridin-2-yl)methyl)-8,9-dihydro-7H-cyclopenta[c][1,8]naphthyridine-2-carboxamide]	154	1370
CC(C)CN(Cc1ccc(C(F)(F)F)cn1)C(=O)c1ccc2nc(N)c3c(c2c1)CCC3 [Example 611, 4-amino-N-(2-methylpropyl)-N-((5-(trifluoromethyl)-2-pyridinyl)methyl)-2,3-dihydro-1H-cyclopenta[c]quinoline-8-carboxamide]	84	474
CC(C)CN(Cc1ccc(C(F)(F)F)cn1)C(=O)c1cnc2nc(N)c3c(c2c1)COC3 [Example 612, 4-amino-N-(2-methylpropyl)-N-((5-(trifluoromethyl)-2-pyridinyl)methyl)-1,3-dihydrofuro[3,4-c][1,8]naphthyridine-8-carboxamide]	176	3060
CC(C)CN(Cc1ccc(C(F)(F)F)cn1)C(=O)c1ccc2nc(N)c3c(c2c1)COC3 [Example 613, 4-amino-N-(2-methylpropyl)-N-((5-(trifluoromethyl)-2-pyridinyl)methyl)-1,3-dihydrofuro[3,4-c]quinoline-8-carboxamide]	23	761
C[C@H](c1ncccn1)N(Cc1ccc(C(F)(F)F)cn1)C(=O)c1cnc2nc(N)c3c(c2c1)COC3 [Example 614, 4-amino-N-((1R)-1-(2-pyrimidinyl)ethyl)-N-((5-(trifluoromethyl)-2-pyridinyl)methyl)-1,3-dihydrofuro[3,4-c][1,8]naphthyridine-8-carboxamide]	42	255
Cc1noc2c1c(N)nc1ccc(C(=O)N(Cc3ccc(C(F)(F)F)cn3)CC(C)C)cc12 [Example 617, 4-amino-3-methyl-N-(2-methylpropyl)-N-((5-(trifluoromethyl)-2-pyridinyl)methyl)[1,2]oxazolo[4,5-c]quinoline-8-carboxamide]	245	> 10000
CC(C)CN(Cc1ccc(C(F)(F)F)cn1)C(=O)c1cc2c3c(c(N)nc2cn1)COC3 [Example 620, 4-amino-N-(2-methylpropyl)-N-((5-(trifluoromethyl)-2-pyridinyl)methyl)-1,3-dihydrofuro[3,4-c][1,7]naphthyridine-8-carboxamide]	77	3560
C[C@H](c1ncccn1)N(Cc1ccc(C(F)(F)F)cn1)C(=O)c1cc2c3c(c(N)nc2cn1)COC3 [Example 621, 4-amino-N-((1R)-1-(2-pyrimidinyl)ethyl)-N-((5-(trifluoromethyl)-2-pyridinyl)methyl)-1,3-dihydrofuro[3,4-c][1,7]naphthyridine-8-carboxamide]	108	1230
C[C@H](c1ncccc1F)N(Cc1ccc(Br)nn1)C(=O)c1ccc2nc(N)c3c(c2c1)CCC3 [Example 624, 4-amino-N-((6-bromo-3-pyridazinyl)methyl)-N-((1R)-1-(3-fluoro-2-pyridinyl)ethyl)-2,3-dihydro-1H-cyclopenta[c]quinoline-8-carboxamide]	21	189
C[C@H](c1ncccn1)N(Cc1ccc(C(F)F)cn1)C(=O)c1cnc2nc(N)c3c(c2c1)CCC3 [Example 625, 6-amino-N-((5-(difluoromethyl)-2-pyridinyl)methyl)-N-((1R)-1-(2-pyrimidinyl)ethyl)-8,9-dihydro-7H-cyclopenta[c][1,8]naphthyridine-2-carboxamide]	130	1590
C[C@H](c1ncccn1)N(Cc1ccc(C(F)(F)F)cn1)C(=O)c1cnc2nc(N)c3c(c2c1)CCC3 [Example 626, 6-amino-N-((1R)-1-(2-pyrimidinyl)ethyl)-N-((5-(trifluoromethyl)-2-pyridinyl)methyl)-8,9-dihydro-7H-cyclopenta[c][1,8]naphthyridine-2-carboxamide]	43	444
C[C@H](c1ncccn1)N(Cc1ccc(Cl)cn1)C(=O)c1cnc2nc(N)c3c(c2c1)CCC3 [Example 627, 6-amino-N-((5-chloro-2-pyridinyl)methyl)-N-((1R)-1-(2-pyrimidinyl)ethyl)-8,9-dihydro-7H-cyclopenta[c][1,8]naphthyridine-2-carboxamide]	45	583
C[C@H](c1ncccc1F)N(Cc1ccc(C(F)(F)F)nn1)C(=O)c1cnc2nc(N)c3c(c2c1)CCC3 [Example 628, 6-amino-N-((1R)-1-(3-fluoro-2-pyridinyl)ethyl)-N-((6-(trifluoromethyl)-3-pyridazinyl)methyl)-8,9-dihydro-7H-cyclopenta[c][1,8]naphthyridine-2-carboxamide]	119	1190

Stronger by IC50 [1], values ahead:

IC50 [1] [nM]	IC50 [2] [nM]	Compound
19	271	C[C@H](c1ncccn1)N(Cc1ccc(C#N)cn1)C(=O)c1ccc2nc(N)c3c(c2c1)CCC3 [Example 615, 4-amino-N-((5-cyano-2-pyridinyl)methyl)-N-((1R)-1-(2-pyrimidinyl)ethyl)-2,3-dihydro-1H-cyclopenta[c]quinoline-8-carboxamide]
19	408	C[C@H](c1ncccn1)N(Cc1ccc(C#N)cn1)C(=O)c1ccc2nc(N)c3ccccc3c2c1 [Example 630, 6-amino-N-((5-cyano-2-pyridinyl)methyl)-N-((1R)-1-(2-pyrimidinyl)ethyl)-2-phenanthridinecarboxamide]
16	398	C[C@H](c1ncccn1)N(Cc1ccc(C(F)(F)F)cn1)C(=O)c1ccc2nc(N)c3ccccc3c2c1 [Example 629, 6-amino-N-((1R)-1-(2-pyrimidinyl)ethyl)-N-((5-(trifluoromethyl)-2-pyridinyl)methyl)-2-phenanthridinecarboxamide]
15	148	C[C@H](c1ncccn1)N(Cc1ccc(C(F)F)cn1)C(=O)c1ccc2nc(N)c3c(c2c1)CCC3 [Example 623, 4-amino-N-((5-(difluoromethyl)-2-pyridinyl)methyl)-N-((1R)-1-(2-pyrimidinyl)ethyl)-2,3-dihydro-1H-cyclopenta[c]quinoline-8-carboxamide]
12	354	CN(Cc1ccc(S(F)(F)(F)(F)F)cc1)C(=O)c1cc2c(cc1F)nc(N)c1cnn(C)c12 [Example 575, 4-amino-7-fluoro-N,1-dimethyl-N-(4-(pentafluoro-lambda~6~- sulfanyl)benzyl)-1H-pyrazolo[4,3-c]quinoline-8-carboxamide]
12	908	C[C@H](c1ccc(F)cn1)N(C)C(=O)c1cc2c(cc1Cl)nc(N)c1cnn(C)c12 [Example 593, 4-amino-7-chloro-N-((1R)-1-(5-fluoro-2-pyridinyl)ethyl)-N,1-dimethyl-1H-pyrazolo[4,3-c]quinoline-8-carboxamide]
11	156	C[C@H](c1ncccn1)N(Cc1ccc(Cl)cn1)C(=O)c1ccc2nc(N)c3c(c2c1)CCC3 [Example 622, 4-amino-N-((5-chloro-2-pyridinyl)methyl)-N-((1R)-1-(2-pyrimidinyl)ethyl)-2,3-dihydro-1H-cyclopenta[c]quinoline-8-carboxamide]
10	215	Nc1nc2ccc(C(=O)N(Cc3ccc(C(F)(F)F)cn3)Cc3ncccn3)cc2c2cnccc12 [Example 631, 5-amino-N-(2-pyrimidinylmethyl)-N-((5-(trifluoromethyl)-2-pyridinyl)methyl)benzo[c][2,6]naphthyridine-9-carboxamide]
6	135	C[C@H](c1ncccn1)N(Cc1ccc(C(F)(F)F)cn1)C(=O)c1ccc2nc(N)c3c(c2c1)CCC3 [Example 610, 4-amino-N-((1R)-1-(2-pyrimidinyl)ethyl)-N-((5-(trifluoromethyl)-2-pyridinyl)methyl)-2,3-dihydro-1H-cyclopenta[c]quinoline-8-carboxamide]
